For 29 molecules, AC50 results are on record in patent US20250171437A1 (Agios Pharmaceuticals,Inc., priority 2022, published 2025).

The target in this assay is T1, human PAH with the R408W mutation (A375 R408W cells) (Homo sapiens, UniProt P00439, R408W).
T1 construct: expressed in transfected cells
T1 sequence (P00439 1-452 R408W): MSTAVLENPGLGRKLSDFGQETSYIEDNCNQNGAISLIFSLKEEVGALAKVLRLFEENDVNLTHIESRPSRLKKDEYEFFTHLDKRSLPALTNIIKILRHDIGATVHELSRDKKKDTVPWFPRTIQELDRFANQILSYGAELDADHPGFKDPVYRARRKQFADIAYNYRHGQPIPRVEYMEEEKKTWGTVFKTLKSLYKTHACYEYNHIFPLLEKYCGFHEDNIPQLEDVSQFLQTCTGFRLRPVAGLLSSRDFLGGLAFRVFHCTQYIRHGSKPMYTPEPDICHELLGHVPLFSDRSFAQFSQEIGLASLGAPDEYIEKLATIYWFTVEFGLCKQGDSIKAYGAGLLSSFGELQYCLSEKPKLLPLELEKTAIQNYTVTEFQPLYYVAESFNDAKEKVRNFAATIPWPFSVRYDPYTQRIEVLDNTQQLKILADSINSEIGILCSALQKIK
The experiment in a line: Cell Based Phenylalanine Flux Assay. As to conditions: 24 hrs with compound, then 20 μM sepiapterin and 800 μM 13C9,15N-Phenylalanine for 4 hours, 13C-Tyrosine by LC-MS, average where tested multiple times. An outline of the steps: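 Phenylalanine-to-tyrosine flux is measured in A375 cells carrying stable human R408W PAH. After 24 h compound exposure, 13C9,15N-Phe (800 μM) with sepiapterin (20 μM) is supplied for 4 h and media 13C-Tyr is read by LC-MS; AC50s are binned.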

[1] abbreviates: A375 cells expressing R408W PAH.

Each structure is given as a SMILES string.

What is called AC50 is the midpoint of the concentration-response curve, whichever way the signal moves. As for `O=C(c1oc(-c2ccncc2)nc1C(F)F)N1CCc2[nH]cnc2[C@H]1c1nc2cc(F)ccc2o1` [Example 421, (S)-(4-(difluoromethyl)-2-(pyridin-4-yl)oxazol-5-yl)(4-(5-fluorobenzo[d]oxazol-2-yl)-6,7-dihydro-1H-imidazo[4,5-c]pyridin-5(4H)-yl)methanone], the AC50 (A375 R408W cells) was at most 500 nM. `O=C(c1cnco1)N1CCc2[nH]cnc2[C@@H]1c1nc2ccccc2o1` [Example 548, (R)-(4-(benzo[d]oxazol-2-yl)-6,7-dihydro-1H-imidazo[4,5-c]pyridin-5(4H)-yl)(oxazol-5-yl)methanone]: under “A375 R408W cells”, the AC50 lay within 1000 to 5000 nM.

In the case of `COc1cc(F)cc2nc([C@H]3c4nc[nH]c4CCN3C(=O)c3oc(C(C)(C)O)nc3C(F)F)oc12` [Example 716, (R)-(4-(difluoromethyl)-2-(2-hydroxypropan-2-yl)oxazol-5-yl)(4-(5-fluoro-7-methoxybenzo[d]oxazol-2-yl)-6,7-dihydro-1H-imidazo[4,5-c]pyridin-5(4H)-yl)methanone], the AC50 (A375 R408W cells) lay in the range of 1000 to 5000 nM. On to `Cn1cnc(-c2nc(C(F)F)c(C(=O)N3CCc4[nH]cnc4[C@@H]3c3nc4ccccc4o3)o2)c1` [Example 785, (R)-(4-(benzo[d]oxazol-2-yl)-6,7-dihydro-1H-imidazo[4,5-c]pyridin-5(4H)-yl)(4-(difluoromethyl)-2-(1-methyl-1H-imidazol-4-yl)oxazol-5-yl)methanone], for which, where the note is “A375 R408W cells”, the AC50 is at least 5000 nM. `O=C(c1cnc(-c2ccccn2)o1)N1CCc2[nH]cnc2[C@@H]1c1nc2ccc(Br)cc2o1` [Example 8, (R)-(4-(6-bromobenzo[d]oxazol-2-yl)-6,7-dihydro-1H-imidazo[4,5-c]pyridin-5(4H)-yl)(2-(pyridin-2-yl)oxazol-5-yl)methanone]: for the setting “A375 R408W cells”, the AC50 was in the range of 1000 to 5000 nM.

With `Cn1ccc(-c2nc(C(F)(F)F)c(C(=O)N3CCc4[nH]cnc4[C@@H]3c3nc4cc(F)ccc4o3)o2)n1` [Example 788, (R)-(4-(5-fluorobenzo[d]oxazol-2-yl)-6,7-dihydro-1H-imidazo[4,5-c]pyridin-5(4H)-yl)(2-(1-methyl-1H-pyrazol-3-yl)-4-(trifluoromethyl)oxazol-5-yl)methanone], the AC50 (A375 R408W cells) was 1000 to 5000 nM.

With `CN(C)c1nnc(C(=O)N2CCc3[nH]cnc3C2c2nc3cc(F)ccc3o2)o1` (centres unmarked), the AC50 under setting [1] was in the range of 1000 to 5000 nM. On to `C[C@@H](O)c1nc(C(F)F)c(C(=O)N2CCc3[nH]cnc3[C@H]2c2nc3c(F)cccc3o2)o1` [Example 229, (4-(difluoromethyl)-2-((R)-1-hydroxyethyl)oxazol-5-yl)((S)-4-(4-fluorobenzo[d]oxazol-2-yl)-6,7-dihydro-1H-imidazo[4,5-c]pyridin-5(4H)-yl)methanone], for which the AC50 (A375 R408W cells) was at most 500 nM. In the case of `O=C(c1cnn2cc(N3CCC(F)CC3)ccc12)N1CCc2[nH]cnc2[C@H]1c1nc2cccc(F)c2o1` [Example 369, (S)-(4-(7-fluorobenzo[d]oxazol-2-yl)-6,7-dihydro-1H-imidazo[4,5-c]pyridin-5(4H)-yl)(6-(4-fluoropiperidin-1-yl)pyrazolo[1,5-a]pyridin-3-yl)methanone], where the note is “A375 R408W cells”, the AC50 is at most 500 nM. As to `Cc1nc(-c2ccccn2)oc1C(=O)N1CCc2[nH]cnc2[C@H]1c1nc2cc(F)ccc2o1` [Example 31, (S)-(4-(5-fluorobenzo[d]oxazol-2-yl)-6,7-dihydro-1H-imidazo[4,5-c]pyridin-5(4H)-yl)(4-methyl-2-(pyridin-2-yl)oxazol-5-yl)methanone], under “A375 R408W cells”, the AC50 is 500 to 1000 nM. Regarding `CC(C)(O)c1nc(Br)c(C(=O)N2CCc3[nH]cnc3[C@@H]2c2nc3c(F)cccc3o2)o1` [Example 251, (R)-(4-bromo-2-(2-hydroxypropan-2-yl)oxazol-5-yl)(4-(4-fluorobenzo[d]oxazol-2-yl)-6,7-dihydro-1H-imidazo[4,5-c]pyridin-5(4H)-yl)methanone], the AC50 (A375 R408W cells) is 1000 to 5000 nM.

Consider `O=C(c1cnco1)N1CCc2[nH]cnc2C1c1nc2c(F)cc(F)cc2o1` (centres unmarked), for which the concentration at half-maximal activity (AC50) under setting [1] fell in the range of 1000 to 5000 nM. On to `CC(C)(O)C1CCN(c2ccc3c(C(=O)N4CCc5[nH]cnc5[C@H]4c4nc5cccc(F)c5o4)cnn3c2)CC1` [Example 368, (S)-(4-(7-fluorobenzo[d]oxazol-2-yl)-6,7-dihydro-1H-imidazo[4,5-c]pyridin-5(4H)-yl)(6-(4-(2-hydroxypropan-2-yl)piperidin-1-yl)pyrazolo[1,5-a]pyridin-3-yl)methanone], for which, under “A375 R408W cells”, the AC50 is 500 to 1000 nM.

For the molecule `O=C(c1nncn1C1CC1)N1CCc2[nH]cnc2C1c1nc2cccc(F)c2o1` (centres unmarked), under setting [1], the AC50 was 1000 to 5000 nM.

For `Cc1ncoc1C(=O)N1CCc2[nH]cnc2[C@H]1c1nc2c(F)cccc2o1` [Example 599, (S)-(4-(4-fluorobenzo[d]oxazol-2-yl)-6,7-dihydro-1H-imidazo[4,5-c]pyridin-5(4H)-yl)(4-methyloxazol-5-yl)methanone], the AC50 (A375 R408W cells) was at most 500 nM. With `COc1ccc2oc([C@H]3c4nc[nH]c4CCN3C(=O)c3ccnn3C(F)F)nc2c1` [Example 552, (R)-(1-(difluoromethyl)-1H-pyrazol-5-yl)(4-(5-methoxybenzo[d]oxazol-2-yl)-6,7-dihydro-1H-imidazo[4,5-c]pyridin-5(4H)-yl)methanone], the AC50 (A375 R408W cells) lay within 1000 to 5000 nM. Same read-out and setting: then `Cc1ccc2nc([C@@H]3c4nc[nH]c4CCN3C(=O)c3oc(C(C)(C)O)nc3C)oc2c1` [Example 319, (S)-(2-(2-hydroxypropan-2-yl)-4-methyloxazol-5-yl)(4-(6-methylbenzo[d]oxazol-2-yl)-6,7-dihydro-1H-imidazo[4,5-c]pyridin-5(4H)-yl)methanone], with 500 to 1000 nM; and `Cc1cccc2nc([C@H]3c4nc[nH]c4CCN3C(=O)c3nc(C(F)F)nn3C)oc12` [Example 614, (R)-(3-(difluoromethyl)-1-methyl-1H-1,2,4-triazol-5-yl)(4-(7-methylbenzo[d]oxazol-2-yl)-6,7-dihydro-1H-imidazo[4,5-c]pyridin-5(4H)-yl)methanone], with 1000 to 5000 nM. With `Fc1ccc2oc(C3c4nc[nH]c4CCN3Cc3cnco3)nc2c1` (centres unmarked), the AC50 under setting [1] was at least 5000 nM. Consider `Cn1ncc(C(=O)N2CCc3[nH]cnc3C2c2nc3cc(F)ccc3o2)c1C(F)F` (centres unmarked), for which the AC50 under setting [1] is at least 5000 nM. As to `CC(C)(O)c1nc(C(F)F)c(CN2CCc3[nH]cnc3C2c2nc3cc(F)ccc3o2)o1` (centres unmarked), the AC50 under setting [1] was at least 5000 nM. Consider `Cc1ccc2oc([C@@H]3c4nc[nH]c4CCN3C(=O)c3oc(-c4ccccn4)nc3C(F)F)nc2c1` [Example 737, (S)-(4-(difluoromethyl)-2-(pyridin-2-yl)oxazol-5-yl)(4-(5-methylbenzo[d]oxazol-2-yl)-6,7-dihydro-1H-imidazo[4,5-c]pyridin-5(4H)-yl)methanone], for which the AC50 (A375 R408W cells) is at most 500 nM. Regarding `CC(C)(O)c1cc(C(=O)N2CCc3[nH]cnc3C2c2nc3ccc(F)cc3o2)no1` (centres unmarked), the AC50 under setting [1] was 1000 to 5000 nM. Consider `O=C(c1cnn2cc(F)c(Cl)cc12)N1CCc2[nH]cnc2[C@@H]1c1nc2cc(F)ccc2o1` [Example 220, (R)-(5-chloro-6-fluoropyrazolo[1,5-a]pyridin-3-yl)(4-(5-fluorobenzo[d]oxazol-2-yl)-6,7-dihydro-1H-imidazo[4,5-c]pyridin-5(4H)-yl)methanone], for which the AC50 (A375 R408W cells) was at least 5000 nM. Regarding `O=C(c1oc(C2CC2)nc1C(F)F)N1CCc2[nH]cnc2[C@@H]1c1nc2cc(F)ccc2o1` [Example 54, (R)-(2-cyclopropyl-4-(difluoromethyl)oxazol-5-yl)(4-(5-fluorobenzo[d]oxazol-2-yl)-6,7-dihydro-1H-imidazo[4,5-c]pyridin-5(4H)-yl)methanone], the AC50 (A375 R408W cells) was in the range of 500 to 1000 nM.

Take `Cc1ccc2nc([C@H]3c4nc[nH]c4CCN3C(=O)c3nnc(-c4ccccn4)o3)oc2c1` [Example 102, (R)-(4-(6-methylbenzo[d]oxazol-2-yl)-6,7-dihydro-1H-imidazo[4,5-c]pyridin-5(4H)-yl)(5-(pyridin-2-yl)-1,3,4-oxadiazol-2-yl)methanone]: the AC50 (A375 R408W cells) is 1000 to 5000 nM. Consider `O=C(c1ocnc1C(F)F)N1CCc2[nH]cnc2[C@@H]1c1nc2cc(F)c(F)cc2o1` [Example 296, (R)-(4-(5,6-difluorobenzo[d]oxazol-2-yl)-6,7-dihydro-1H-imidazo[4,5-c]pyridin-5(4H)-yl)(4-(difluoromethyl)oxazol-5-yl)methanone], for which the AC50 (A375 R408W cells) lay in the range of 1000 to 5000 nM. For the molecule `C[C@H](O)c1nc(C(F)F)c(C(=O)N2CCc3[nH]cnc3[C@H]2c2nc3ccc(F)cc3o2)o1` [Example 231, (4-(difluoromethyl)-2-((S)-1-hydroxyethyl)oxazol-5-yl)((S)-4-(6-fluorobenzo[d]oxazol-2-yl)-6,7-dihydro-1H-imidazo[4,5-c]pyridin-5(4H)-yl)methanone], the AC50 (A375 R408W cells) was in the range of 500 to 1000 nM.

Take `CC(C)(O)c1nc(C(F)(F)F)c(C(=O)N2CCc3[nH]cnc3[C@H]2c2nc3c(F)cccc3o2)o1` [Example 257, (S)-(4-(4-fluorobenzo[d]oxazol-2-yl)-6,7-dihydro-1H-imidazo[4,5-c]pyridin-5(4H)-yl)(2-(2-hydroxypropan-2-yl)-4-(trifluoromethyl)oxazol-5-yl)methanone]: the AC50 (A375 R408W cells) is at most 500 nM.
